The values below come from paper PMC6017536, “Synthesis and Smo Activity of Some Novel Benzamide Derivatives” (Molecules : A Journal of Synthetic Chemistry and Natural …, 2017).

The test system of test [1] is Hh signaling pathway (Gli-luc reporter, NIH3T3 cells). The experiment in a line: NIH3T3-Gli-luciferase reporter assay (Gli-Luc dual luciferase). The test is classed as cell-based, Mouse. As to conditions: NIH3T3 cells transfected with Gli luciferase reporter, stimulated with 10 nM SAG, 24 h, average of triplicate separate determinations. Here is the method:
In the Hh signaling pathway activity test, we used the Gli-Luc double luciferase detection system, which is widely used to test the inhibitory activity of the Hh signaling pathway. […]
3.3.1. NIH3T3-Gli-Luciferase Reporter Assay
NIH3T3 cells (Chinese Academy of Sciences cell bank, Mouse embryonic fibroblast cell line) were grown in Dulbecco’s Modified Eagle Media (DMEM) media supplemented with 10% fetal bovine serum (FBS) at 37 °C with a humidified 5% CO2 atmosphere.
NIH3T3 cells were plated one day before transfection. To prepare NIH3T3 cells, enough cells were collected to complete the transfection experiment, and centrifuged for 5 min at 300× g. The cell pellet was resuspended to an appropriate concentration in DMEM media with 0.5% FBS, then 5000 cells were plated in 100 μL per well of a 96-well plate.
The NIH3T3 cells were transfected with the Glioma-associated oncogene (GLI)-reporter, negative control, and positive control constructs (QIAGEN, Cat# CCS-6030L) by using Fugene HD transfection reagents (Promega, Cat. No. E2311, Madison, WI). The FuGENER HD Transfection Reagent/DNA mixture was incubated for 15 min at room temperature. A total of 10 μL of the FuGENER HD Transfection Reagent/DNA mixture was added per well to the 96-well plate containing 100 μL cells in growth medium. The mixture was mixed gently using a plate shaker. Cells were returned to the incubator for 24–48 h. Transfection efficiency was estimated by observing green fluorescent protein (GFP) expression in the positive control wells by fluorescence microscopy.
[…] Cells were incubated with SAG and compounds for 24 h. To study the effect of test compounds, cells were harvested 24 h after treatment to perform the dual-luciferase assay.
Dual-Luciferase assays were conducted using the Dual-Luciferase® Assay System (Promega, Cat# E1910) according to Promega’s protocol. Each system included: 5X Passive Lysis Buffer (PLB), Luciferase Assay Buffer II, Luciferase Assay Substrate, and 50X Stop & Glo® Substrate and Stop & Glo® Buffer.
After 24 h treatment, the assay medium was removed and cells were washed with PBS buffer, and then 20 μL of 1XPLB was added to each well. The culture plates were incubated on a plate shaker with gentle shaking at room temperature for 15 min. A total of 100 μL LARII was added to each well, and the firefly luciferase luminescence signal was measured using an EnVision® 2104 Multilabel Reader (PerkinElmer, Waltham, MA, USA), with a measure time of 10s. A total of 100 μL Stop & Glo® Reagent was added to each well, and Renilla luciferase luminescence signal was measured using an EnVision® 2104 Multilabel Reader (PerkinElmer); the measure time was 10 s.
Relative Luciferase Units (RLU) Calculation
Firefly: Renilla activity ratios were generated from experimental and control transfections. Ratios from transcription factor-responsive reporter transfections were divided by ratios from negative control transfections to obtain relative luciferase units. […]
The histogram of % inhibition of compounds was generated by using GraphPad Prism 5.0 software (GraphPad Software Inc., La Jolla, CA, USA).
(In general: Reporter assays use an easily measured gene product as a stand-in for the process of interest.)

The target of test [2] is T1, human Smo (Homo sapiens, UniProt Q99835).
T1 construct: HA; expressed in transfected cells; host or cells: HEK293
The experiment in a line: hSmo BODIPY-cyclopamine competitive binding assay. As to conditions: inhibition of BODIPY-cyclopamine fluorescence, competitive displacement, HEK 293 cells over-expressing human Smo; single IC50 determination; read-out: Smo-BCB IC50. As for the experimental part: To determine whether the Hh inhibitory activities of the target compounds were derived from their inhibition to the Smo receptor, a binding assay was used.
3.3.2. Hsmo-BC Binding Assay
BODIPY-cyclopamine binding assay is a fluorescence-based assay used to analyze the binding of Smo agonists/antagonists. HEK293 cells were transfected with pCMV-HA/hSmo using Lipofectamine reagent (Lipofectamine™ 2000, Invitrogen, Carlsbad, CA, USA). Briefly, 50 μL of Lipofectamine 2000 and 22.5 μg of pCMV-HA/hSmo were each incubated in 1.5 mL of Opti-MEMI media (Invitrogen) at room temperature for 30 min and then was added to 1 × 10^6 HeK293 cells in 25 mL of culture medium in a 75 cm^2 cell culture flask. After overnight incubation under 5% CO2 at 37 °C, cells were detached using Versene (Invitrogen) and resuspended in culture medium. The suspended cells were added to a 96-well plate at 10,000 cells/well. After removing the media from each well, the cells were fixed with 4% paraformaldehyde (PFA) for 20 min at room temperature. Then the PFA buffer was removed, and the cells were incubated with 4′,6-diamidino-2-phenylindole (DAPI) ([…]) for 10 min, followed by washing with PBS four times. […] After incubation, the cells were washed five times with PBST (PBS buffer supplied with 0.05% Tween-20). The fluorescence images were automatically captured and analyzed by a high content fluorescence imaging system (Arrayscan VTI, Thermo, Waltham, MA, USA). Data was expressed as a percentage of fluorescence intensity observed with BODIPY-cyclopamine alone. […] IC50 values were calculated with GraphPad Prism software using the sigmoidal dose-response function.

T1 sequence (Q99835 28-787): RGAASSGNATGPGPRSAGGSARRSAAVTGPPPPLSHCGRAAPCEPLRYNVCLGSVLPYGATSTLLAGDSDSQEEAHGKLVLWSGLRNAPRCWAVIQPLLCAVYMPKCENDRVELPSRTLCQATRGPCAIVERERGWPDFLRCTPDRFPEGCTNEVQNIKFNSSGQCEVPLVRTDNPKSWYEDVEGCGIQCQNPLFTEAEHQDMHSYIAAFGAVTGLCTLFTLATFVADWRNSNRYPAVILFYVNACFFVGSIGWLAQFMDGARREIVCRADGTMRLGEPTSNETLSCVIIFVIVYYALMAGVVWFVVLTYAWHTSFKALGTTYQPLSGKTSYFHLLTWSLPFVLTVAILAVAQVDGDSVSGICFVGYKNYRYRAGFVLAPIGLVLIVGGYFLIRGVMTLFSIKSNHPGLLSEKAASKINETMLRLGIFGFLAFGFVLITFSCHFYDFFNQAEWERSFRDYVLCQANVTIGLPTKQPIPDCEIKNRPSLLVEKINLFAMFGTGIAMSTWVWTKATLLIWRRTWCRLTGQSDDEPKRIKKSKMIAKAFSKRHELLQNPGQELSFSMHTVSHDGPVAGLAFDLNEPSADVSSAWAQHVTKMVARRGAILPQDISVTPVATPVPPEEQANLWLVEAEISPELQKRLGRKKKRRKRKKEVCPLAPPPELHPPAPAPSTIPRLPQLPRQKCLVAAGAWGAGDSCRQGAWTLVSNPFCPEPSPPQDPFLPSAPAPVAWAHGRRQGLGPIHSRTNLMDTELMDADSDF

As a reminder, the IC50 is the concentration that gives 50% inhibition. Take `COc1cc(OC)cc(C(=O)Nc2cccc(N3CCC(C(=O)N4CCN(C)CC4)CC3)c2)c1` [Compound 5l, 3,5-Dimethoxy-N-(3-(4-(4-methylpiperazine-1-carbonyl)piperidin-1-yl)phenyl)benzamide]: the IC50 in test [1] (Mus musculus) stood at 1.83 ± 0.03 µM; in test [2], 2.41 ± 0.01 µM.

`CN1CCN(C(=O)C2CCN(c3cccc(NC(=O)c4ccc(S(C)(=O)=O)cc4)c3)CC2)CC1` [Compound 5p, N-(3-(4-(4-methylpiperazine-1-carbonyl)piperidin-1-yl)phenyl)-4-(methylsulfonyl)benzamide] registered an IC50 in test [1] (Mus musculus) of 3.43 ± 0.08 µM.

As for `CN1CCN(C(=O)C2CCN(c3cccc(NC(=O)c4cccnc4)c3)CC2)CC1` [Compound 5n, N-(3-(4-(4-methylpiperazine-1-carbonyl)piperidin-1-yl)phenyl)nicotinamide], the IC50 was found to be 5.32 ± 0.13 µM in test [1] (Mus musculus) and 6.35 ± 0.07 µM in test [2].

Take “3-Methyl-N-(3-(4-(4-methylpiperazine-1-carbonyl)piperidin-1-yl)phenyl)benzamide [Compound 5i]”: in test [1], the IC50 is 16.32 ± 0.05 µM.

In test [1] (Mus musculus), `CS(=O)(=O)c1ccc(C(=O)Nc2ccc(Cl)c(-c3ccccn3)c2)c(Cl)c1` [Vismodegib, reference compound] gave a 50% inhibitory concentration (IC50) of 0.025 µM.

Compound “3-Methoxy-N-(3-(4-(4-methylpiperazine-1-carbonyl)piperidin-1-yl)phenyl)benzamide [Compound 5j]” gave an IC50 in test [1] of 4.74 ± 0.02 µM.

In test [1] (Mus musculus), `O=C(Nc1cc(CC(=O)N2CCN(S(=O)(=O)c3ccc(F)cc3)CC2)ccc1Cl)c1ccc(Cl)cc1` [Compound 8b, 4-Chloro-N-(2-chloro-5-(2-(4-((4-fluorophenyl)sulfonyl)piperazin-1-yl)-2-oxoethyl)phenyl)benzamide] returned an IC50 of 12.7 ± 0.16 µM.

With `CN1CCN(C(=O)C2CCN(c3cccc(NC(=O)c4ccc([N+](=O)[O-])cc4)c3)CC2)CC1` [Compound 5g, N-(3-(4-(4-methylpiperazine-1-carbonyl)piperidin-1-yl)phenyl)-4-nitrobenzamide], inhibition in test [1] (Mus musculus) was half-maximal at 60.56 ± 0.04 µM (IC50).

Regarding `CN1CCN(C(=O)C2CCN(c3cccc(NC(=O)c4cccc(-c5ccccn5)c4)c3)CC2)CC1` [Compound 5q, N-(3-(4-(4-methylpiperazine-1-carbonyl)piperidin-1-yl)phenyl)-3-(pyridin-2-yl)benzamide], the IC50 in test [1] (Mus musculus) worked out at 1.26 ± 0.03 µM; in test [2], 1.61 ± 0.02 µM.

In turn, `CN1CCN(C(=O)C2CCN(c3cccc(NC(=O)c4ccccc4)c3)CC2)CC1` [Compound 5a, N-(3-(4-(4-Methylpiperazine-1-carbonyl)piperidin-1-yl)phenyl)benzamide] yielded a concentration for half-maximal inhibition (IC50) in test [1] (Mus musculus) of 28.52 ± 0.02 µM.

For the compound `CN1CCN(C(=O)C2CCN(c3cccc(NC(=O)c4ccccc4Br)c3)CC2)CC1` [Compound 5m, 2-Bromo-N-(3-(4-(4-methylpiperazine-1-carbonyl)piperidin-1-yl)phenyl)benzamide], the IC50 in test [1] (Mus musculus) worked out at 10.49 ± 0.05 µM.

The compound `CS(=O)(=O)N1CCN(C(=O)Cc2ccc(Cl)c(NC(=O)c3ccc(Cl)cc3)c2)CC1` [Compound 8a, 4-Chloro-N-(2-chloro-5-(2-(4-(methylsulfonyl)piperazin-1-yl)-2-oxoethyl)phenyl)benzamide] had an IC50 in test [1] (Mus musculus) of 6.88 ± 0.13 µM.

In the case of `CN1CCN(C(=O)C2CCN(c3cccc(NC(=O)c4cccc(Cl)c4)c3)CC2)CC1` [Compound 5c, 3-Chloro-N-(3-(4-(4-methylpiperazine-1-carbonyl)piperidin-1-yl)phenyl)benzamide], in test [1] (Mus musculus), the IC50 stood at 14.63 ± 0.01 µM.

Turning to `CN1CCN(C(=O)C2CCN(c3cccc(NC(=O)c4ccc(Br)cc4)c3)CC2)CC1` [Compound 5h, 4-Bromo-N-(3-(4-(4-methylpiperazine-1-carbonyl)piperidin-1-yl)phenyl)benzamide], in test [1] (Mus musculus), it took 7.85 ± 0.01 µM to reach half-maximal inhibition (IC50).

With `CN1CCN(C(=O)C2CCN(c3cccc(NC(=O)c4cccc(F)c4)c3)CC2)CC1` [Compound 5e, 3-Fluoro-N-(3-(4-(4-methylpiperazine-1-carbonyl)piperidin-1-yl)phenyl)benzamide], the IC50 in test [1] (Mus musculus) turned out to be 17.59 ± 0.15 µM.

`CCCCS(=O)(=O)N1CCN(C(=O)Cc2ccc(Cl)c(NC(=O)c3ccc(Cl)cc3)c2)CC1` [Compound 8c, N-(5-(2-(4-(butylsulfonyl)piperazin-1-yl)-2-oxoethyl)-2-chlorophenyl)-4-chlorobenzamide] returned a concentration for half-maximal inhibition (IC50) in test [1] (Mus musculus) of 8.62 ± 0.09 µM.

In test [1] (Mus musculus), `CN1CCN(C(=O)C2CCN(c3cccc(NC(=O)c4ccc(Cl)cc4)c3)CC2)CC1` [Compound 5b, 4-Chloro-N-(3-(4-(4-methylpiperazine-1-carbonyl)piperidin-1-yl)phenyl)benzamide] gave a half-inhibitory concentration (IC50) of 12.47 ± 0.11 µM.

For `CN1CCN(C(=O)C2CCN(c3cccc(NC(=O)c4cccc([N+](=O)[O-])c4)c3)CC2)CC1` [Compound 5f, N-(3-(4-(4-methylpiperazine-1-carbonyl)piperidin-1-yl)phenyl)-3-nitrobenzamide], in test [1] (Mus musculus), the 50% inhibitory concentration (IC50) turned out to be 53.34 ± 0.07 µM.

`CN1CCN(C(=O)C2CCN(c3cccc(NC(=O)c4ccc(F)cc4)c3)CC2)CC1` [Compound 5d, 4-Fluoro-N-(3-(4-(4-methylpiperazine-1-carbonyl)piperidin-1-yl)phenyl)benzamide] returned an IC50 in test [1] (Mus musculus) of 15.51 ± 0.03 µM.

Consider `CN1CCN(C(=O)C2CCN(c3cccc(NC(=O)c4ccc(S(C)(=O)=O)cc4Cl)c3)CC2)CC1` [Compound 5o, 2-Chloro-N-(3-(4-(4-methylpiperazine-1-carbonyl)piperidin-1-yl)phenyl)-4-(methylsulfonyl)benzamide], for which the half-maximal inhibitory concentration (IC50) worked out at 4.28 ± 0.01 µM in test [1] (Mus musculus) and 6.23 ± 0.12 µM in test [2].

`COc1cc(C(=O)NC(=S)Nc2cccc(NC(=O)c3ccccc3)c2)cc(OC)c1OC` [MRT10, reference compound] displayed an IC50 in test [1] (Mus musculus) of 2.15 µM.

Compound `Cc1ccccc1C(=O)Nc1cccc(N2CCC(C(=O)N3CCN(C)CC3)CC2)c1` [Compound 5k, 2-Methyl-N-(3-(4-(4-methylpiperazine-1-carbonyl)piperidin-1-yl)phenyl)benzamide] yielded an IC50 in test [1] (Mus musculus) of 16.61 ± 0.12 µM.
